Measured values as given in US20250084074A1, “SUBSTITUTED HETEROCYCLES AS HSET INHIBITORS” (MERCK PATENT GMBH, priority 2022, published 2025).
Structures can show the parent of a compound that is named as a salt.

What follows are molecules tested against HSET full length protein (Homo sapiens (Human), UniProt Q9BW19) (assay: HSET ADP-Glo Assay S - 3 μM ATP). Conditions: 5 nM HSET, 70 μg/mL microtubule, 80 min at rt, read-out: COMBINED HSET ADP GLO IC50.
Format: biochemical
Procedure, shortened: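 Full-length human HSET (5 nM) with paclitaxel-stabilised bovine brain microtubules (70 μg/mL) in HEPES pH 6.8 buffer was preincubated 10 min with compound. ATP at 3 μM started the reaction, which ran 80 min at rt. ADP formed was measured by ADP-Glo luminescence.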

Chain of HSET full length protein (Q9BW19 whole entry): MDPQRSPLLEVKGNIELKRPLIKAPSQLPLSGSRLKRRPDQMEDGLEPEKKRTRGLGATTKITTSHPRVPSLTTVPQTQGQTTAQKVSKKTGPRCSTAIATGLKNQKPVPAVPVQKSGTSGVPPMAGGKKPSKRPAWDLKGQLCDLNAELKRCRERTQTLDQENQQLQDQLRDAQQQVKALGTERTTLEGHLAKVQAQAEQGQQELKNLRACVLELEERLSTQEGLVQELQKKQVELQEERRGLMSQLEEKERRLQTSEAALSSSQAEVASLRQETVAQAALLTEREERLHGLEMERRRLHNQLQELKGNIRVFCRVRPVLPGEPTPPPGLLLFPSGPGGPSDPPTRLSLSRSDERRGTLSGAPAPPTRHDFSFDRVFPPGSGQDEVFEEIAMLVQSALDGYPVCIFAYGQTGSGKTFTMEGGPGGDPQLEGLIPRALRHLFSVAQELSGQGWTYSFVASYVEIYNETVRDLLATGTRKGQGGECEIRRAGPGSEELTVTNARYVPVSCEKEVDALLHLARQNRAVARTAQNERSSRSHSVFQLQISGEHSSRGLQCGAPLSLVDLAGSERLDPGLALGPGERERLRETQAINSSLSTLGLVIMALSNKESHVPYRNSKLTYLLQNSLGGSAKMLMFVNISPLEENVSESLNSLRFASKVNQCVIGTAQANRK

| Structure (SMILES) | IC50 [nM] |
| --- | --- |
| CCCOC(=O)c1sc(NC(=O)CC2(NC(=O)c3cc(Cl)cc(-c4noc(C)n4)c3)CCN(C)CC2)nc1C [Example 144, Propyl-2-(2-(4-(3-chloro-5-(5-methyl-1,2,4-oxadiazol-3-yl)benzamido)-1-methylpiperidin-4-yl)acetamido)-4-methylthiazole-5-carboxylate] | 9200 |
| CCOC(=O)c1sc(NC(=O)C(C)CNC(=O)c2cccc(-c3noc(C)n3)c2)nc1C (stereo not drawn) [Example 145, Ethyl-4-methyl-2-(2-methyl-3-(3-(5-methyl-1,2,4-oxadiazol-3-yl)benzamido)propanamido)thiazole-5-carboxylate] | 5480 |
| CCOC(=O)c1sc(NC(=O)CC(NC(=O)c2cccc(-c3noc(C)n3)c2)C2CCNCC2)nc1C (stereo not drawn) [Example 146, 4-(3-((5-(ethoxycarbonyl)-4-methylthiazol-2-yl)amino)-1-(3-(5-methyl-1,2,4-oxadiazol-3-yl)benzamido)-3-oxopropyl)piperidin-1-ium formate] | 260 |
| CCOC(=O)c1sc(NC(=O)CC(NC(=O)c2cccc(-c3noc(C)n3)c2)C2CCN(C)CC2)nc1C (stereo not drawn) [Example 147, 4-(3-((5-(ethoxycarbonyl)-4-methylthiazol-2-yl)amino)-1-(3-(5-methyl-1,2,4-oxadiazol-3-yl)benzamido)-3-oxopropyl)-1-methylpiperidin-1-ium formate] | 291 |
| CCOC(=O)c1sc(NC(=O)C[C@H](CN)NC(=O)c2cccc(-c3noc(C)n3)c2)nc1C [Example 148, Ethyl-2-[[(3R)-4-amino-3-[[3-(5-methyl-1,2,4-oxadiazol-3-yl)benzoyl]amino]butanoyl]amino]-4-methyl-thiazole-5-carboxylate] | 133 |
| CCOC(=O)c1sc(NC(=O)[C@H]2CNC[C@@H]2NC(=O)c2cccc(-c3noc(C)n3)c2)nc1C [Example 149, Ethyl-4-methyl-2-[[(3S,4R)-4-[[3-(5-methyl-1,2,4-oxadiazol-3-yl)benzoyl]amino]pyrrolidine-3-carbonyl]amino]thiazole-5-carboxylate; formic acid] | 2800 |
| CCCOC(=O)c1sc(NC(=O)C[C@@H](CCCNC)NC(=O)c2cccc(-c3noc(C)n3)c2)nc1C [Example 153, Propyl-(R)-4-methyl-2-(3-(3-(5-methyl-1,2,4-oxadiazol-3-yl)benzamido)-6-(methylamino)hexanamido)thiazole-5-carboxylate] | 285 |
| CNCCC[C@@H](CC(=O)Nc1nc(C)c(C(C)(C)C)s1)NC(=O)c1cc(Cl)cc(-c2noc(C)n2)c1 [Example 157, (S)-N-(1-((5-(tert-butyl)-4-methylthiazol-2-yl)amino)-6-(methylamino)-1-oxohexan-3-yl)-3-chloro-5-(5-methyl-1,2,4-oxadiazol-3-yl)benzamide] | 373 |
| CCCOC(=O)c1sc(NC(=O)C[C@H](CCN(C)C)NC(=O)c2cccc(-c3noc(C)n3)c2)nc1C [Example 162, Propyl (S)-2-(5-(dimethylamino)-3-(3-(5-methyl-1,2,4-oxadiazol-3-yl)benzamido)pentanamido)-4-methylthiazole-5-carboxylate] | 558 |
| Cc1nc(-c2ccc3ccnc(N[C@@H](CCCN)CC(=O)Nc4nc(C)c(C(C)(C)C)s4)c3c2)no1 [Example 164, (S)-6-amino-N-(5-(tert-butyl)-4-methylthiazol-2-yl)-3-((7-(5-methyl-1,2,4-oxadiazol-3-yl)isoquinolin-1-yl)amino)hexanamide formate] | 116 |

Stronger by IC50, values ahead:

| IC50 [nM] | Structure (SMILES) |
| --- | --- |
| 57 | CCOC(=O)c1sc(NC(=O)C[C@H](CCCN)NC(=O)c2cccc(-c3noc(C)n3)c2)nc1C [Example 150, ethyl (S)-2-(6-amino-3-(3-(5-methyl-1,2,4-oxadiazol-3-yl)benzamido)hexanamido)-4-methylthiazole-5-carboxylate] |
| 13 | CCCOC(=O)c1sc(NC(=O)C[C@H](CCCN)NC(=O)c2cccc(-c3noc(C)n3)c2)nc1C [Example 151, Popyl-(S)-2-(6-amino-3-(3-(5-methyl-1,2,4-oxadiazol-3-yl)benzamido)hexanamido)-4-methylthiazole-5-carboxylate] |
| 19 | CCCOC(=O)c1sc(NC(=O)C[C@H](CCCNC)NC(=O)c2cccc(-c3noc(C)n3)c2)nc1C [Example 152, Propyl 4-methyl-2-[[(3S)-6-(methylamino)-3-[[3-(5-methyl-1,2,4-oxadiazol-3-yl)benzoyl]amino]hexanoyl]amino]thiazole-5-carboxylate] |
| 6 | CNCCC[C@@H](CC(=O)Nc1nc(C)c(C(=O)OC(C)(C)C)s1)NC(=O)c1cccc(-c2noc(C)n2)c1 [Example 154, Tert-butyl 4-methyl-2-[[(3S)-6-(methylamino)-3-[[3-(5-methyl-1,2,4-oxadiazol-3-yl)benzoyl]amino]hexanoyl]amino]thiazole-5-carboxylate] |
| 11 | CNCCC[C@@H](CC(=O)Nc1nc(C)c(C(=O)OC2CCCC2)s1)NC(=O)c1cccc(-c2noc(C)n2)c1 [Example 155, Cyclopentyl (S)-4-methyl-2-(3-(3-(5-methyl-1,2,4-oxadiazol-3-yl)benzamido)-6-(methylamino)hexanamido)thiazole-5-carboxylate] |
| 53 | CNCCC[C@@H](CC(=O)Nc1nc(C)c(C(=O)OC(C)C)s1)NC(=O)c1cccc(-c2noc(C)n2)c1 [Example 156, Isopropyl (S)-4-methyl-2-(3-(3-(5-methyl-1,2,4-oxadiazol-3-yl)benzamido)-6-(methylamino)hexanamido)thiazole-5-carboxylate] |
| 11 | CCCOC(=O)c1sc(NC(=O)C[C@H](CCCN(C)C)NC(=O)c2cccc(-c3noc(C)n3)c2)nc1C [Example 158, Propyl (S)-2-(6-(dimethylamino)-3-(3-(5-methyl-1,2,4-oxadiazol-3-yl)benzamido)hexanamido)-4-methylthiazole-5-carboxylate] |
| 21 | CCCOC(=O)c1sc(NC(=O)C[C@H](CCCN2CCOCC2)NC(=O)c2cccc(-c3noc(C)n3)c2)nc1C [Example 159, Propyl (S)-4-methyl-2-(3-(3-(5-methyl-1,2,4-oxadiazol-3-yl)benzamido)-6-morpholinohexanamido)thiazole-5-carboxylate] |
| 13 | CCCOC(=O)c1sc(NC(=O)C[C@H](CCCN)Nc2nccc3ccc(-c4noc(C)n4)cc23)nc1C [Example 163, Propyl (S)-2-(6-amino-3-((7-(5-methyl-1,2,4-oxadiazol-3-yl)isoquinolin-1-yl)amino)hexanamido)-4-methylthiazole-5-carboxylate] |
| 23 | CNCCC[C@@H](CC(=O)Nc1nc(C)c(C(=O)OC2CCCC2)s1)Nc1nccc2ccc(-c3noc(C)n3)cc12 [Example 165, Cyclopentyl (S)-4-methyl-2-(3-((7-(5-methyl-1,2,4-oxadiazol-3-yl)isoquinolin-1-yl)amino)-6-(methylamino)hexanamido)thiazole-5-carboxylate] |
| 11 | CNCCC[C@@H](CC(=O)Nc1nc(C)c(C(=O)OC(CF)CF)s1)Nc1nccc2ccc(-c3noc(C)n3)cc12 [Example 166, 1,3-Difluoropropan-2-yl (S)-4-methyl-2-(3-((7-(5-methyl-1,2,4-oxadiazol-3-yl)isoquinolin-1-yl)amino)-6-(methylamino)hexanamido)thiazole-5-carboxylate] |
